Experiment [1] concerns susceptible strain of E. coli. Put plainly: Response of pre-rRNA to cefazolin in log phase culture. In kind it is cell-based. The following applies: log phase of growth, within 30 min after addition.
The test system of experiment [2] is E. coli clinical urine isolate EC103. Kind of experiment: Electrochemical sensor assay of pre-rRNA and mature rRNA in E. coli EC103 cultures spiked with antibiotics. In kind it is cell-based. The following applies: EC103 culture in MH broth, antibiotic added at 150 or 210 min; 25 μg/ml Rifampicin, 25 μg/ml Chloramphenicol, 4 μg/ml Ciprofloxacin, 16 μg/ml Gentamicin; vs culture without antibiotic. The protocol:
Bacterial Strains and Media. E. coli clinical urine isolate EC103 (Amp^R) was obtained from the University of California-Los Angeles (UCLA) Clinical Microbiology Laboratory with approval from the UCLA and Veterans' Affair Institutional Review Boards and appropriate Health Insurance Portability and Accountability Act exemptions. EC103 was inoculated into Mueller Hinton (MH) broth with 12% glycerol (Becton Dickinson, Sparks, Md.) and stored at -80° C. EC103 was cultured overnight in MH broth with 64 μ[…] (Sigma, St. Louis, Mo.). EC103 was plated on Luria Broth (LB) agar (MOBIO Laboratories Inc., Carlsbad, Calif.) for counting colony-forming units (CFUs). EC103 Growth and Target Copy Number Experiments. Overnight cultures of EC103 were prepared by adding 5 μl of EC103 glycerol stock to 5 ml of MH broth with ampicillin and incubated at 37° C. overnight with shaking. The following day, the EC103 culture was diluted by adding 10 μl of the overnight culture to 100 ml of prewarmed and […] MH broth in a 500 ml flask, followed by incubation at 37° C. with shaking at 250 rpm. Every 30 min, including at 0 min and the overnight culture itself, a 1 ml sample was taken for OD600 measurement and 10-fold serial dilutions (100 μl into 900 μl) were performed in room temperature MH broth. Cell density was determined by plating serial dilutions in triplicate. At each time point, culture samples were transferred to an ice water bath or centrifuged immediately at 4° C. for 3 min at 14,000 rpm. The supernatants were then removed by aspiration, flash frozen in a dry ice-ethanol bath and stored at -80° C. […] Electrochemical detection. […] For thiolated capture probes, disposable 16-sensor bare Au electrode arrays were obtained from GeneFluidics ([…], Calif.). Each sensor of the array consisted of a 2.5 mm diameter central working electrode, surrounded by an Au counter electrode and an Au pseudo-reference electrode. The sensor chip was driven by a computer-controlled Helios multichannel electrochemical workstation (GeneFluidics, […], Calif.). Washing steps were carried out after each application of reagents by applying a stream of deionized H2O to the sensor surface for approximately 2-3 sec followed by 5 sec of drying under a stream of nitrogen. Prior to addition of the first reagent, the bare gold chips were dried as described above. To functionalize the working sensor surface, a fresh mixture of 0.05 μM thiolated capture probe and 300 μM 1,6-hexanedithiol (96%, Sigma, St. Louis, Mo.) was prepared in 10 mM Tris-HCl, 1 mM EDTA and 0.3 M NaCl (pH 8.0) and allowed to stand at room temperature for 10 min. […] This was then combined with the CFU/ml values determined by plating for each time point to generate target molecule number per CFU measurements.

“Also recorded” adds a separate entry of the source.

Consider `Cc1nnc(SCC2=C(C(=O)O)N3C(=O)[C@@H](NC(=O)Cn4cnnn4)[C@H]3SC2)s1` [cefazolin], for which, in experiment [1], the “drop in the amount of pre-rRNA compared to a culture without the antibiotic” value is given as “one-log drop”.
With Gentamicin, in experiment [2], the “effect on mature rRNA level” value is listed as “decrease in the pool of mature rRNA; also recorded: selective decrease in mature rRNA” and the “effect on pre-rRNA level” value is on record as “without affecting the level of pre-rRNA”.
On the same counts, the results for `O=C(N[C@H](CO)[C@H](O)c1ccc([N+](=O)[O-])cc1)C(Cl)Cl` [chloramphenicol, Chloramphenicol] are “decrease of mature rRNA; also recorded: selective decrease in mature rRNA” and “selective increase in pre-rRNA”.

(Values after patent US10370728B2, “Antibiotic susceptibility testing using probes for preribosomal RNA” (THE REGENTS OF THE UNIVERSITY OF CALIFORNIA, priority 2012, dated 2019).)
